# Laboratory results: patent US20040023295A1, “Methods and systems for analyzing complex biological systems” (priority 2001, published 2004)
# System: Saccharomyces cerevisiae wild type strain BY4743
# Assay: Yeast azole drug experiment AF1: metabolite analysis (GC-MS, LC-MS)
# Type: cell-based
smiles,measurement,setting,value
C[C@@H]1[C@H](O)[C@@H](C)/C=C/C=C/C=C/C=C/C=C/C=C/C=C/[C@H](O[C@@H]2O[C@H](C)[C@@H](O)[C@H](N)[C@@H]2O)C[C@@H]2O[C@](O)(C[C@@H](O)C[C@@H](O)[C@H](O)CC[C@@H](O)C[C@@H](O)CC(=O)O[C@H]1C)C[C@H](O)[C@H]2C(=O)O [Amphoteracin B],Fold Change urocanic acid,nLC,0
same,Fold Change xanthosine-DiH2O,nLC,0
same,Fold Change zeatin,nLC,0
same,Fold Change urocanic acid,pLC,0
same,Fold Change xanthosine (diH2O),pLC,0
same,Fold Change zeatin,pLC,0
same,Fold Change of metabolite disaccaride2,"platform GC, p-Value 0.000388379",−0.9977
same,Fold Change of metabolite disaccaride3,"platform GC, p-Value 0.000700744",−0.9977
same,Fold Change of metabolite tms glutamine3,"platform GC, p-Value 0.003279434",−0.8935
same,Fold Change of metabolite phenylalanine,"platform GC, p-Value 0.010760299",−0.9797
same,Fold Change of metabolite ornithine3,"platform GC, p-Value 0.011300115",−0.9853
same,Fold Change of metabolite TMS mevalonic acid lactone,"platform GC, p-Value 0.012983194",−0.9767
same,Fold Change of metabolite malic acid,"platform GC, p-Value 0.015444108",−0.963
same,Fold Change of metabolite leucine,"platform GC, p-Value 0.015876175",−0.9443
same,Fold Change of metabolite glutamine,"platform GC, p-Value 0.019324613",−0.9116
same,Fold Change of metabolite sugar?,"platform GC, p-Value 0.019518223",−0.933
same,Fold Change of metabolite isoleucine,"platform GC, p-Value 0.021030517",−0.9533
same,Fold Change of metabolite aspartic acid,"platform GC, p-Value 0.024172801",−0.9743
same,Fold Change of metabolite tms tyrosine3,"platform GC, p-Value 0.029953667",−0.9473
same,Fold Change of metabolite tms lysine4,"platform GC, p-Value 0.032217789",−0.9783
same,Fold Change of metabolite glycanopyrose,"platform GC, p-Value 0.041202857",−0.958
same,Fold Change of metabolite alanine,"platform GC, p-Value 0.054639399",−0.7773
same,Fold Change of metabolite threonine3,"platform GC, p-Value 0.063199416",−0.8933
same,Fold Change of metabolite threonine2,"platform GC, p-Value 0.073159868",−0.8553
same,Fold Change of metabolite glycerol,"platform GC, p-Value 0.089234962",−0.815
same,Fold Change of metabolite ergosterol,"platform GC, p-Value 0.114118055",2.303
same,Fold Change of metabolite fucosterol,"platform GC, p-Value 0.186711806",−0.6553
same,Fold Change of metabolite iso citric acid,"platform GC, p-Value 0.233348939",−0.6183
same,Fold Change of metabolite squalene,"platform GC, p-Value 0.254158772",−0.5745
same,Fold Change of metabolite oleic acid,"platform GC, p-Value 0.325422554",−0.4593
same,Fold Change of metabolite glycine,"platform GC, p-Value 0.431923912",0.8807
same,Fold Change of metabolite lysine,"platform GC, p-Value 0.488896519",−0.3925
same,Fold Change of metabolite palmiteliadic acid,"platform GC, p-Value 0.503020409",0.515
same,Fold Change of metabolite tms tyrosine2,"platform GC, p-Value 0.601581614",−0.3593
same,Fold Change of metabolite octadecanoic acid,"platform GC, p-Value 0.660192025",0.21
same,Fold Change of metabolite mevalonic acid lactone,"platform GC, p-Value 0.690626296",−0.1276
same,Fold Change of metabolite pyrimidine,"platform GC, p-Value 0.744108261",−0.185
same,Fold Change of metabolite tetradecanoic acid,"platform GC, p-Value 0.793963653",0.07967
same,Fold Change of metabolite hexadecanoic acid,"platform GC, p-Value 0.921125845",−0.2427
same,Fold Change of metabolite phosphate,"platform GC, p-Value 0.983733869",−0.007333
same,Fold Change of metabolite campesterol,"platform GC, p-Value 1",0
same,Fold Change of metabolite desmosterol,"platform GC, p-Value 1",0
same,Fold Change of metabolite ornithine2,"platform GC, p-Value 1.48992E−05",−1
same,Fold Change of metabolite asparagine,"platform GC, p-Value 6.41E−06",−1
same,Fold Change of metabolite disaccaride1,"platform GC, p-Value 7.54E−06",−1
same,Fold Change of metabolite lanosterol,"platform GC, p-Value 7.71E−06",−1
same,Fold Change of metabolite kinetin,"platform nLC (first kinetin line), p-Value 1",0
same,Fold Change of metabolite kinetin,"platform nLC (second kinetin line), p-Value 1",0
same,Fold Change of metabolite cytidine,"platform nLC, p-Value 0.000680198",−0.9986
same,Fold Change of metabolite isocitric/citric/qu,"platform nLC, p-Value 0.027544382",2.549
same,Fold Change of metabolite lactic acid,"platform nLC, p-Value 0.077524891",−0.02583
same,Fold Change of metabolite allantoin,"platform nLC, p-Value 0.149169352",3.97
same,Fold Change of metabolite orotic acid,"platform nLC, p-Value 0.186179266",8380
same,Fold Change of metabolite succinic,"platform nLC, p-Value 0.193450596",0.8663
same,Fold Change of metabolite 3-indolylacetonitri,"platform nLC, p-Value 0.197015297",−0.9998
same,Fold Change of metabolite citrulline,"platform nLC, p-Value 0.217809679",1659
same,Fold Change of metabolite 2-ketobutyric acid,"platform nLC, p-Value 0.225631474",−0.9992
same,Fold Change of metabolite sucrose,"platform nLC, p-Value 0.225682636",0.4493
same,Fold Change of metabolite fumaric/3m2oxobutan,"platform nLC, p-Value 0.238894937",0.4423
same,Fold Change of metabolite glucosamine6PO4,"platform nLC, p-Value 0.273438701",−0.9951
same,Fold Change of metabolite gallic acid,"platform nLC, p-Value 0.29960644",0.1622
same,Fold Change of metabolite arginine,"platform nLC, p-Value 0.315413423",−0.4885
same,Fold Change of metabolite biotin,"platform nLC, p-Value 0.363209057",1.077
same,Fold Change of metabolite nopaline,"platform nLC, p-Value 0.369522244",0.3342
same,Fold Change of metabolite hypoxanthine,"platform nLC, p-Value 0.372039959",0.1655
same,Fold Change of metabolite tryptophan,"platform nLC, p-Value 0.380816515",1.142
same,Fold Change of metabolite DLaminoadipic acid,"platform nLC, p-Value 0.40985594",1.411
same,Fold Change of metabolite inostol/glucos/sorb,"platform nLC, p-Value 0.41837757",−0.5905
same,Fold Change of metabolite guanosine,"platform nLC, p-Value 0.425021511",1.131
same,Fold Change of metabolite caffeic acid,"platform nLC, p-Value 0.427037943",−0.5882
same,Fold Change of metabolite ornithine,"platform nLC, p-Value 0.473753211",2.534
same,Fold Change of metabolite malic acid,"platform nLC, p-Value 0.497517178",0.6212
same,Fold Change of metabolite proline,"platform nLC, p-Value 0.518220081",0.4603
same,Fold Change of metabolite 2-ketoglutaric,"platform nLC, p-Value 0.622408732",8.791
same,Fold Change of metabolite alanine,"platform nLC, p-Value 0.62524207",0.1599
same,Fold Change of metabolite sorbitol/mannitol,"platform nLC, p-Value 0.68492695",0.2162
same,Fold Change of metabolite aspartic,"platform nLC, p-Value 0.703732114",0.2407
same,Fold Change of metabolite pyridoxine,"platform nLC, p-Value 0.708651225",−0.1294
same,Fold Change of metabolite selenoDL-methionine,"platform nLC, p-Value 0.711447529",0.8515
same,Fold Change of metabolite glutamic/acetylseri,"platform nLC, p-Value 0.733962176",0.1414
same,Fold Change of metabolite asparagine,"platform nLC, p-Value 0.758489047",0.1511
same,Fold Change of metabolite phenylalanine,"platform nLC, p-Value 0.76165051",−0.1906
same,Fold Change of metabolite leucine/isoleucine/,"platform nLC, p-Value 0.763305915",0.1319
same,Fold Change of metabolite serine,"platform nLC, p-Value 0.766811518",0.1091
same,Fold Change of metabolite threonine/homoserin,"platform nLC, p-Value 0.769444989",0.1267
same,Fold Change of metabolite allantoic acid,"platform nLC, p-Value 0.777964345",−0.1456
same,Fold Change of metabolite tetradecanoic acid,"platform nLC, p-Value 0.782765706",−0.07723
same,Fold Change of metabolite 4aminobutyrate/dimg,"platform nLC, p-Value 0.820379809",−0.1983
same,Fold Change of metabolite decanoic acid,"platform nLC, p-Value 0.824169685",−0.08716
same,Fold Change of metabolite glutamine/lysine,"platform nLC, p-Value 0.835677767",0.07919
same,Fold Change of metabolite NacetylL-glutamate,"platform nLC, p-Value 0.840704909",−0.1078
same,Fold Change of metabolite menthol*,"platform nLC, p-Value 0.852876357",−0.07013
same,Fold Change of metabolite pipecolic acid,"platform nLC, p-Value 0.871015411",0.08112
same,Fold Change of metabolite sugar-phosphate,"platform nLC, p-Value 0.878141701",−0.1067
same,Fold Change of metabolite oleic acid,"platform nLC, p-Value 0.880270386",0.689
same,Fold Change of metabolite aconitic acid,"platform nLC, p-Value 0.891314692",0.5426
same,Fold Change of metabolite palmitic acid,"platform nLC, p-Value 0.90280612",0.3979
same,Fold Change of metabolite nicotinic acid,"platform nLC, p-Value 0.972130606",0.3131
same,Fold Change of metabolite lauric acid,"platform nLC, p-Value 0.972245476",0.1225
same,Fold Change of metabolite 4-methylcatechol,"platform nLC, p-Value 1",0
